The text below walks through data of patent publication US4318847A, “Physiologically active tetrapeptides” (Zaidan Hojin Biseibutsu Kagaku Kenkyu Kai, priority 1979, dated 1982).

For one test, the target named is T1, aminopeptidase A (AP-A) (Homo sapiens, UniProt Q07075).
T1 construct: an AP-A solution which was obtained by ammonium sulfate fractionation according to the method of Nagatsu et al; from tissue
In words: AP-A (E.C. 3,4,11,7) inhibition assay. It is filed as biochemical. The settings on record: L-α-glutamyl-β-naphthylamide substrate, pH 7.0, 37° C., 30 minutes; read-out: IC/50 AP--A: amount of the peptide to inhibit the intact activity of the target enzyme by 50% (converted). Here is the method: That is, 0.25 ml of 2 mM L-α-glutamyl-β-naphthylamide, 0.54 ml of 0.1 M Tris-HCl buffer, pH 7.0, 0.01 ml of 0.1 M calcium chloride and 0.1 ml of a test sample in water were mixed and kept at 37° C. for 3 minutes. The reaction was initiated by addition of 0.1 ml of an AP-A solution which was obtained by ammonium sulfate fractionation according to the method of Nagatsu et al. After incubation at 37° C. for 30 minutes, 1 ml of 1.0 M acetate buffer, pH 4.2, containing 1.0 mg/ml Garnet GBC (orthoaminoazotoluene diazonium salt) and 10% Tween 20 (Atlas Chemical Co., U.S.A.) was added to the reaction solution and then allowed to stand at room temperature for 15 minutes. The absorbance of the test solution (a) was measured at 530 nm. The control solution without the test sample was used as the blank test (absorbance (b)). The inhibition percentage on aminopeptidase A was calculated as [(b-a)/b]x100.

Test [1] has as its target T2, leucine aminopeptidase (Leu-AP) (Sus scrofa, UniProt P28839).
T2 construct: purchased Boehringer-Mannheim Co
T2 sequence (P28839 1-519): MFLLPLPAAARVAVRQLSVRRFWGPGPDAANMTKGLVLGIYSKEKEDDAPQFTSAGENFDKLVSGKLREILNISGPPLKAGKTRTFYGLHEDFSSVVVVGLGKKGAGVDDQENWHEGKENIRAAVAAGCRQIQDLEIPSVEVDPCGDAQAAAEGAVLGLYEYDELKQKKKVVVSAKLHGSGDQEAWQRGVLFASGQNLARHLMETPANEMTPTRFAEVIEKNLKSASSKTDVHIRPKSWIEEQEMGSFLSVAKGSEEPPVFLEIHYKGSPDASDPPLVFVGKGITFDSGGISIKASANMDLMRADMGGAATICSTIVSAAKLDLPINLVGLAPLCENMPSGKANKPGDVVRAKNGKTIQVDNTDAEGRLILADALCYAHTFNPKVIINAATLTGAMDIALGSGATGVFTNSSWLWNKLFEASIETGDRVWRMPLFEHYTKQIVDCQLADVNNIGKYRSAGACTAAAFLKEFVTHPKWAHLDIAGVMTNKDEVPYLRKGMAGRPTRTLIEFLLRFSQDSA
Kind of test: Leu-AP (E.C. 3,4,11,1) inhibition assay. The settings on record: Leu-AP (Boehringer-Mannheim), leucyl-β-naphthylamide substrate, pH 7.6, 37° C., 30 minutes; read-out: IC/50 Leu--AP: amount of the peptide to inhibit the intact activity of the target enzyme by 50% (converted). The class given is biochemical. Here is the method:
For enzyme assay, 0.25 ml of 2 mM […], 0.6 ml of 0.1 M Tris-HCl buffer, pH 7.6, and 0.1 ml of an aqueous solution containing a test compound were mixed and allowed to stand at 37° C. for 3 minutes. After a 20-fold dilution of Leu-AP (Boehringer-Mannheim Co.) in 0.1 M Tris-HCl buffer, pH 7.6 (0.05 ml) was added to the solution, the reaction was performed at 37° C. for 30 minutes. The inhibition percentage was measured as detailed in (1).

Where a SMILES comes first, the peptide text is derived from it. The star is where a group is joined. X1 = CC(C)C[C@@H](N)[C@H](O)C(=O)*

T1 sequence (Q07075 whole entry): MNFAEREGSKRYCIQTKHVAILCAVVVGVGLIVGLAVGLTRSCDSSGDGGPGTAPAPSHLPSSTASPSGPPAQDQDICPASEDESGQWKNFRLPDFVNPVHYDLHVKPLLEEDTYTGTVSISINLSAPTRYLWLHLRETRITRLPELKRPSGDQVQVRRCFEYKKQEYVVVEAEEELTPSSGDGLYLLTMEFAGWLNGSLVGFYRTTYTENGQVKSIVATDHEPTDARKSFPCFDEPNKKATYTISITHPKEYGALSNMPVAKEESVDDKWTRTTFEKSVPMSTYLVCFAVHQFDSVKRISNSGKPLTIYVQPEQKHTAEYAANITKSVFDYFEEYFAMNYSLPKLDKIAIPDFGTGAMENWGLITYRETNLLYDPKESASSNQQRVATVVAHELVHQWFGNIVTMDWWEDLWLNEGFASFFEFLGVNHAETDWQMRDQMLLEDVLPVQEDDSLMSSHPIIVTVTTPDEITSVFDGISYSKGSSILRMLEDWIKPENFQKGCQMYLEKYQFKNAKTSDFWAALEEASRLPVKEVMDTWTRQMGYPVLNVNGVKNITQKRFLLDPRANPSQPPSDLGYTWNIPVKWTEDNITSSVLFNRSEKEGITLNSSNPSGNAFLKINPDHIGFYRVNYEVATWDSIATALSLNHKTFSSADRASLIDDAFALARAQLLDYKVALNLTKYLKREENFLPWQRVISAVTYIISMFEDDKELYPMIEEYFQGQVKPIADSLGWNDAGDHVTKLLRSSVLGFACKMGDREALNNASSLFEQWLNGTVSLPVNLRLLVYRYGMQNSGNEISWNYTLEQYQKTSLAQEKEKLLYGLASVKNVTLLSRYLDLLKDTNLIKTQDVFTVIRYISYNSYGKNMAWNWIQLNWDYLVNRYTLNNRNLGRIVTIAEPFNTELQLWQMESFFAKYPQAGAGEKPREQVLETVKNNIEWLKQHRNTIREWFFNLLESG

For the molecule `CC(C)C[C@@H](N)[C@H](O)C(=O)N1CCC[C@H]1C(=O)O` [X--Pro], the figures for the IC50 (on aminopeptidase A (AP-A); in test [1]) were 774 µM and 83.2 µM, respectively.

As to `CC(C)C[C@@H](N)[C@H](O)C(=O)N[C@H](C(=O)N[C@@H](CC(=O)O)C(=O)O)C(C)C` [X--Val--Asp], the IC50 was 32 µM at aminopeptidase A (AP-A) and 0.799 µM in test [1].

Consider `CC(C)C[C@@H](N)[C@H](O)C(=O)N[C@H](C(=O)N[C@H](C(=O)O)C(C)C)C(C)C` [X--Val--Val], for which the IC50 on aminopeptidase A (AP-A) was 10 µM; in test [1], 2.5 µM.

`CC(C)C[C@H](NC(=O)[C@@H](O)[C@H](N)CC(C)C)C(=O)N[C@H](C(=O)N[C@@H](CC(=O)O)C(=O)O)C(C)C` [X--Leu--Val--Asp, (2S,3R)-AHMHA-Leu-Val-Asp]: the results for the IC50 (at aminopeptidase A (AP-A); in test [1]) were 10.2 µM and 0.614 µM, respectively.

As for `CC(C)C[C@@H](N)[C@H](O)C(=O)N[C@@H](C)C(=O)N[C@@H](C)C(=O)N[C@@H](CC(=O)O)C(=O)O` [X--Ala--Ala--Asp], the IC50 (on aminopeptidase A (AP-A); in test [1]) was above 597 µM throughout.

For the molecule `CC(C)C[C@H](NC(=O)[C@@H](NC(=O)[C@@H](O)[C@H](N)CC(C)C)C(C)C)C(=O)N[C@@H](CC(=O)O)C(=O)O` [X--Val--Leu--Asp, (2S,3R)-AHMHA-Val-Leu-Asp], the results for the IC50 (at aminopeptidase A (AP-A); in test [1]) were 0.614 µM and 1.43 µM, respectively.

Consider `CC(C)C[C@@H](N)[C@H](O)C(=O)N[C@H](C(=O)N[C@H](C(=O)N[C@H](C(=O)O)[C@@H](C)O)C(C)C)C(C)C` [X--Val--Val--Thr, (2S,3R)-AHMHA-Val-Val-Thr], for which the IC50 on aminopeptidase A (AP-A) was 5.86 µM; in test [1] it was 7.6 µM.

Turning to `CC(C)C[C@@H](N)[C@H](O)C(=O)N[C@H](C(=O)N[C@H](C(=O)N[C@@H](CCCCN)C(=O)O)C(C)C)C(C)C` [X--Val--Val--Lys, (2S,3R)-AHMHA-Val-Val-Lys], the IC50 on aminopeptidase A (AP-A) is 43.1 µM; in test [1], 65.6 µM.

As for `CC(C)C[C@@H](N)[C@H](O)C(=O)N[C@H](C(=O)N[C@H](C(=O)N[C@@H](Cc1ccccc1)C(=O)O)C(C)C)C(C)C` [X--Val--Val--Phe, (2S,3R)-AHMHA-Val-Val-Phe], the figures for the IC50 (at aminopeptidase A (AP-A); in test [1]) were 14.2 µM and 4.34 µM, respectively.

Take `CC(C)C[C@@H](N)[C@H](O)C(=O)N[C@H](C(=O)N[C@@H](CCCCN)C(=O)N[C@@H](CC(=O)O)C(=O)O)C(C)C` [X--Val--Lys--Asp, (2S,3R)-AHMHA-Val-Lys-Asp]: the IC50 at aminopeptidase A (AP-A) is 19.9 µM; in test [1], 6.95 µM.

In the case of `CC(C)C[C@@H](N)[C@H](O)C(=O)N[C@H](C(=O)N[C@H](C(=O)N[C@@H](CC(=O)O)C(=O)O)[C@@H](C)O)C(C)C` [X--Val--Thr--Asp, (2S,3R)-AHMHA-Val-Thr-Asp], the IC50 (at aminopeptidase A (AP-A); in test [1]) was 2.1 µM throughout.

Regarding `CC(C)C[C@@H](N)[C@H](O)C(=O)N[C@H](C(=O)N[C@H](C(=O)N[C@H](C(=O)O)C(C)C)C(C)C)C(C)C` [X--Val--Val--Val, (2S,3R)-AHMHA-Val-Val-Val], the results for the IC50 (at aminopeptidase A (AP-A); in test [1]) were 9.38 µM and 3.92 µM, respectively.

For `CC(C)C[C@@H](N)[C@H](O)C(=O)N[C@@H](CCCCN)C(=O)N[C@H](C(=O)N[C@@H](CC(=O)O)C(=O)O)C(C)C` [X--Lys--Val--Asp, (2S,3R)-AHMHA-Lys-Val-Asp], the IC50 on aminopeptidase A (AP-A) is 2.98 µM; in test [1], 218 µM.

In the case of `CC(C)C[C@@H](N)[C@H](O)C(=O)N[C@H](C(=O)N[C@H](C(=O)N[C@@H](CC(=O)O)C(=O)O)C(C)C)[C@@H](C)O` [X--Thr--Val--Asp, (2S,3R)-AHMHA-Thr-Val-Asp], the figures for the IC50 (on aminopeptidase A (AP-A); in test [1]) were 0.315 µM and 5.25 µM, respectively.

On to `CC(C)C[C@@H](N)[C@H](O)C(=O)N[C@@H](CCCCN)C(=O)N[C@H](C(=O)N[C@H](C(=O)O)C(C)C)C(C)C` [X--Lys--Val--Val, (2S,3R)-AHMHA-Lys-Val-Val], for which the IC50 was 3.9 µM on aminopeptidase A (AP-A) and 369 µM in test [1].

Consider `CC(C)C[C@@H](N)[C@H](O)C(=O)N[C@H](C(=O)N[C@H](C(=O)N[C@@H](CCC(=O)O)C(=O)O)C(C)C)C(C)C` [X--Val--Val--Glu, reference compound], for which the IC50 was 4.09 µM on aminopeptidase A (AP-A) and 4.5 µM in test [1].

For the molecule `CC(C)C[C@@H](N)[C@H](O)C(=O)N[C@H](C(=O)N[C@H](C(=O)N[C@@H](Cc1ccccc1)C(=O)O)[C@@H](C)O)C(C)C` [X--Val--Thr--Phe, (2S,3R)-AHMHA-Val-Thr-Phe], the IC50 on aminopeptidase A (AP-A) is 1.18 µM; in test [1] it was 0.727 µM.

On to `CC(C)C[C@@H](N)[C@H](O)C(=O)N[C@H](C(=O)O)C(C)C` [X--Val], for which the IC50 on aminopeptidase A (AP-A) was 864 µM; in test [1] it was 1.92 µM.

For `CC(C)C[C@@H](N)[C@H](O)C(=O)N[C@@H](CC(=O)O)C(=O)O` [X--Asp], the IC50 was above 905 µM at aminopeptidase A (AP-A) and 105 µM in test [1].

`CC(C)C[C@@H](N)[C@H](O)C(=O)N[C@H](C(=O)N[C@H](C(=O)N[C@H](C(=O)N[C@@H](CC(=O)O)C(=O)O)C(C)C)C(C)C)C(C)C` [X--Val--Val--Val--Asp] (X1-VVVD-OH): the IC50 was 31.4 µM at aminopeptidase A (AP-A) and 7.32 µM in test [1].

As for `CC(C)C[C@@H](N)[C@H](O)C(=O)N[C@H](C(=O)N[C@H](C(=O)N1CCC[C@H]1C(=O)O)C(C)C)C(C)C` [X--Val--Val--Pro, (2S,3R)-AHMHA-Val-Val-Pro], the figures for the IC50 (on aminopeptidase A (AP-A); in test [1]) were 76.7 µM and 5.91 µM, respectively.

In the case of `CC(C)C[C@@H](N)[C@H](O)C(=O)N[C@H](C(=O)N[C@H](C(=O)N[C@@H](CCCNC(=N)N)C(=O)O)C(C)C)C(C)C` [X--Val--Val-- Arg, (2S,3R)-AHMHA-Val-Val-Arg], the IC50 at aminopeptidase A (AP-A) is 26.2 µM; in test [1], 38.8 µM.
